Measured values published in patent US12577247B2 (BUGWORKS RESEARCH, INC., priority 2021, dated 2026).

Key:
[1] = target: T1, A2A receptor (Homo sapiens, UniProt P29274); experiment: A2aR antagonism IC50, cAMP TR-FRET in HEK-293 cells, high concentration of adenosine (30 μM); format: cell-based; conditions: HEK-293 cells expressing A2A receptor; agonist adenosine 30 μM; 2% HSA; inhibition of cAMP; read-out: A2AR IC50 (nM) (@30 μM Adenosine);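 further: compounds added 10 min before adenosine, then 30 min stimulation at room temperature in buffer with 100 µM rolipram and 30 µM EHNA, signal read 1 h after detection reagents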
T1 construct: host or cells: HEK-293
T1 sequence (P29274 whole entry): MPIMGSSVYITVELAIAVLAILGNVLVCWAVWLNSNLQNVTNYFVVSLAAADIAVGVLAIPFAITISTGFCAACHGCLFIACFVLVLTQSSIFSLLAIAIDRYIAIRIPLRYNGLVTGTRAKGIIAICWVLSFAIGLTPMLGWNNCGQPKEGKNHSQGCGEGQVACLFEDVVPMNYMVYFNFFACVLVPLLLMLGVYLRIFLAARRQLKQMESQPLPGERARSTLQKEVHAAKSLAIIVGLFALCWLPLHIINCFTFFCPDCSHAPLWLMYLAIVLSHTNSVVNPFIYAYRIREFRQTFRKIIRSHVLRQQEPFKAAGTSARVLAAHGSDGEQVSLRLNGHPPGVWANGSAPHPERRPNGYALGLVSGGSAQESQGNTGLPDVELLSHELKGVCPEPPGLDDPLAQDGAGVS

[2] = target: T2, A2B receptor (Homo sapiens, UniProt P29275); experiment: A2bR antagonism IC50, cAMP TR-FRET in HEK-293 cells, high concentration of adenosine (30 μM); conditions: A2BR IC50 (nM) (@30 μM Adenosine), HEK-293 cells expressing A2B receptor; agonist adenosine 30 μM; 2% HSA; inhibition of cAMP;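 further: compounds preincubated 10 min with cells, then adenosine stimulation 30 min at room temperature in buffer with Rolipram 100 µM and EHNA 30 µM, TR-FRET read after 1 h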
T2 sequence (P29275 1-332): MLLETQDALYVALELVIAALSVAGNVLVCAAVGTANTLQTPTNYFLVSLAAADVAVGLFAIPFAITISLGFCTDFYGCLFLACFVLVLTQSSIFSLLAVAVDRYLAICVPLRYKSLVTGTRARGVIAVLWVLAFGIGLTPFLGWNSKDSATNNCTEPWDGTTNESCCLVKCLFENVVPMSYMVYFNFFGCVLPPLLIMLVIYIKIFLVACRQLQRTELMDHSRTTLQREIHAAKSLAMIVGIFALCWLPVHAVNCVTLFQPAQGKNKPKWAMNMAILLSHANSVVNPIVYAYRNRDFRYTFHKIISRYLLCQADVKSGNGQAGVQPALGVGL
Experimental: A Time-Resolved Fluorescence Energy Transfer (TR-FRET) assay was used to show the inhibition of this cAMP production in HEK cells upon treatment with compounds of the Formula I of the present disclosure.
HEK-293 cells expressing A2A receptor (#ES-011-C) or A2B receptor (#ES 013-C) were obtained from PerkinElmer. Cells were maintained in DMEM medium supplemented with 10% FBS and 200 μg/mL of G418 at 37° C. and 5% CO2. The cells were cultured in antibiotic free medium for a period of 16-20 hours prior to the assay. All subsequent steps of the assay are performed at room temperature (22-24° C.). […] About 1500 cells per well were pre-incubated for 10 minutes with the compounds of the present invention before adding the agonist Adenosine at a high concentration (30 μM) for a total stimulation time of 30 minutes. […] The assays were conducted in a stimulation buffer containing 1×DMEM, 5 mM HEPES, 2% Human serum albumin (HSA), 100 μM Rolipram and 30 μM erythro-9-(2-hydroxy-3-nonyl) adenine (EHNA). Serial dilutions of compounds were made in stimulation buffer to achieve a final concentration of high micromolar in a reaction volume of 10 μL. The total reaction volume was 10 μL (5 μL of cells, 2.5 μL of antagonist and 2.5 μL of agonist). […] The stimulation was ended, and the reaction completed by adding 5 μL of 4× Eu-cAMP tracer working solution and 5 μL of 4× ULight-anti-cAMP working solution. The TR FRET signal was measured after 1-hour incubation using a Tecan M1000 or a PerkinElmer Victor Nivo plate reader.

IC50 [1] | IC50 [2] | Structure (SMILES)
254 nM | 815 nM | CCc1c(C)nn2c(N)c(C#N)c(NCCc3cccn(CC[S+](C)[O-])c3=O)nc12 (single isomer, unassigned; (-)) [Example 144b, (−)7-amino-3-ethyl-2-methyl-5-((2-(1-(2-(methylsulfinyl)ethyl)-2-oxo-1,2-dihydropyridin-3-yl)ethyl)amino) pyrazolo[1,5-a]pyrimidine-6-carbonitrile]
1050 nM | 1540 nM | CCc1c(C)nn2c(N)c(C#N)c(NCCc3cccn(CCC[S+](C)[O-])c3=O)nc12 (single isomer, unassigned; (-)) [Example 154a, (−)-7-amino-3-ethyl-2-methyl-5-((2-(1-(3-(methylsulfinyl)propyl)-2-oxo-1,2-dihydropyridin-3-yl)ethyl)amino) pyrazolo[1,5-a]pyrimidine-6-carbonitrile]
457 nM | 1020 nM | CCc1c(C)nn2c(N)c(C#N)c(NCCc3cccc(C(C)O)n3)nc12 (single isomer, unassigned; (-)) [Example 159b, (−)-7-amino-3-ethyl-5-((2-(6-(1-hydroxyethyl)pyridine-2-yl)ethyl)amino)-2-methylpyrazolo[1,5-a]pyrimidine-6-carbonitrile]
341 nM | 1250 nM | CCCc1c(C)nn2c(N)c(C#N)c(NCCc3ccn(C4COCC4CO)n3)nc12 (single isomer, unassigned; (-)) [Example 160b, (−) 7-amino-5-((2-(1-(4-(hydroxymethyl)tetrahydrofuran-3-yl)-1H-pyrazol-3-yl)ethyl)amino)-2-methyl-3-propylpyrazolo[1,5-a]pyrimidine-6-carbonitrile]
1880 nM | 5790 nM | CCc1c(C)nn2c(N)c(C#N)c(NCCc3ccn(CCC[S+](C)[O-])n3)nc12 (single isomer, unassigned; (-)) [Example 162a, (−)-7-amino-3-ethyl-2-methyl-5-((2-(1-(3-(methylsulfinyl)propyl)-1H-pyrazol-3-yl)ethyl)amino)pyrazolo[1,5-a]pyrimidine-6-carbonitrile]
72 nM | 11100 nM | CCc1c(C)nn2c(N)c(C#N)c(NCCc3ccn(C4(CNCC[S+](C)[O-])CC4)n3)nc12 (single isomer, unassigned; (-)) [Example 163a, (−)-7-amino-3-ethyl-2-methyl-5-((2-(1-(1-(((2-(methylsulfinyl)ethyl)amino)methyl)cyclopropyl)-1H-pyrazol-3-yl)ethyl)amino) pyrazolo[1,5-a]pyrimidine-6-carbonitrile]
1540 nM | 9160 nM | CCCc1c(C)nn2c(N)c(C#N)c(NCCc3ccn(C4CCC4CO)n3)nc12 (single isomer, unassigned; (-)) [Example 165b, (−)-7-amino-5-((2-(1-(2-(hydroxymethyl)cyclobutyl)-1H-pyrazol-3-yl)ethyl)amino)-2-methyl-3-propylpyrazolo[1,5-a]pyrimidine-6-carbonitrile]
161 nM | 9380 nM | Cc1nn2c(N)c(C#N)c(NCCc3ccn(C4(CN)CC4)n3)nc2c1Cl [Example 68, 7-amino-5-((2-(1-(1-(aminomethyl)cyclopropyl)-1H-pyrazol-3-yl)ethyl)amino)-3-chloro-2-methylpyrazolo[1,5-a]pyrimidine-6-carbonitrile]
68 nM | 2050 nM | Cc1nn2c(N)c(C#N)c(NCCc3ccn(C4(CO)CC4)n3)nc2c1Br [Example 69, 7-amino-3-bromo-5-((2-(1-(1-(hydroxymethyl)cyclopropyl)-1H-pyrazol-3-yl)ethyl)amino)-2-methylpyrazolo[1,5-a]pyrimidine-6-carbonitrile]
125 nM | > 15000 nM | CCn1cccc(CCNc2nc3c(Cl)c(C)nn3c(N)c2C#N)c1=O [Example 70, 7-amino-3-chloro-5-((2-(1-ethyl-2-oxo-1,2-dihydropyridin-3-yl)ethyl)amino)-2-methylpyrazolo[1,5-a]pyrimidine-6-carbonitrile]
158 nM | 2820 nM | CCc1cnn2c(N)c(C#N)c(NCCc3ccn(C4(CO)CC4)n3)nc12 [Example 71, 7-amino-3-ethyl-5-((2-(1-(1-(hydroxymethyl)cyclopropyl)-1H-pyrazol-3-yl)ethyl)amino) pyrazolo[1,5-a] pyrimidine-6-carbonitrile]
362 nM | 3120 nM | Cc1nn2c(N)c(C#N)c(NCCc3cccc(CO)n3)nc2c1Br [Example 72, 7-amino-3-bromo-5-((2-(6-(hydroxymethyl)pyridine-2-yl)ethyl)amino)-2-methylpyrazolo[1,5-a]pyrimidine-6-carbonitrile]
> 15000 nM | > 15000 nM | Cc1nn2c(N)c(C#N)c(NCCc3cnn(C4(CO)CC4)c3)nc2c1Cl [Example 73, 7-amino-3-chloro-5-((2-(1-(1-(hydroxymethyl)cyclopropyl)-1H-pyrazol-4-yl)ethyl)amino)-2-methylpyrazolo[1,5-a] pyrimidine-6-carbonitrile]
398 nM | 1080 nM | Cc1nn2c(N)c(C#N)c(NCCc3ccn(C4(CO)CC4)n3)nc2c1CC1CC1 [Example 74, 7-amino-3-(cyclopropylmethyl)-5-((2-(1-(1-(hydroxymethyl)cyclopropyl)-1H-pyrazol-3-yl)ethyl)amino)-2-methylpyrazolo[1,5-a]pyrimidine-6-carbonitrile]
43 nM | 7150 nM | Cc1nn2c(N)c(C#N)c(NCCc3cc(C)n(C4(CO)CC4)n3)nc2c1Cl [Example 75, 7-amino-3-chloro-5-((2-(1-(1-(hydroxymethyl)cyclopropyl)-5-methyl-1H-pyrazol-3-yl)ethyl)amino)-2-methylpyrazolo[1,5-a]pyrimidine-6-carbonitrile]
50 nM | 1590 nM | CCc1c(C)nn2c(N)c(C#N)c(NCCc3cc(C)n(C4(CO)CC4)n3)nc12 [Example 76, 7-amino-3-ethyl-5-((2-(1-(1-(hydroxymethyl)cyclopropyl)-5-methyl-1H-pyrazol-3-yl)ethyl)amino)-2-methylpyrazolo[1,5-a]pyrimidine-6-carbonitrile]
80 nM | 1760 nM | Cc1nn2c(N)c(C#N)c(NCCc3cccn(C)c3=O)nc2c1Cl [Example 87, 7-amino-3-chloro-2-methyl-5-((2-(1-methyl-2-oxo-1,2-dihydropyridin 3-yl)ethyl)amino) pyrazolo[1,5-a]pyrimidine-6-carbonitrile]
286 nM | 1300 nM | CCc1c(C)nn2c(N)c(C#N)c(NCCc3cccn(C)c3=O)nc12 [Example 88, 7-amino-3-ethyl-2-methyl-5-((2-(1-methyl-2-oxo-1,2-dihydropyridin-3-yl)ethyl)amino) pyrazolo[1,5-a]pyrimidine-6-carbonitrile]
66 nM | 2370 nM | Cc1nn2c(N)c(C#N)c(NCCc3cc(C)n(C4(CO)CC4)n3)nc2c1Br [Example 89, 7-amino-3-bromo-5-((2-(1-(1-(hydroxymethyl)cyclopropyl)-5-methyl-1H-pyrazol-3-yl)ethyl)amino)-2-methylpyrazolo[1,5-a]pyrimidine-6-carbonitrile]
77 nM | 1830 nM | Cc1nn2c(N)c(C#N)c(NCCc3cccc(CNCCO)n3)nc2c1Cl [Example 90, 7-amino-3-chloro-5-((2-(6-(((2-hydroxyethyl)amino)methyl)pyridin-2-yl)ethyl)amino)-2-methylpyrazolo[1,5-a]pyrimidine-6-carbonitrile]
